Read-outs that look alike come from different tables or passages of the source.
How the values were obtained:
in vivo = type: in vivo; conditions: mouse, in vivo, ip; i.p. in mice; N = 5, K = 4; read-out: LD50 and fiducial limits
Text: (§1) The acute toxicity of the compounds of general formula (I) was investigated in mice using the Weil method (Weil C. S., Biometr. J. 8, 249, 1952).

[1] = test system: arrythmia induced by Aconitine in mice; test: animal or person; type: in vivo; conditions: for change in vivo at 100 mg/kg / change in vivo at 25 mg/kg / change in vivo at 40 mg/kg / change in vivo at 8.9 mg/kg / change in vivo at 50 mg/kg / change in vivo at 35 mg/kg / change in vivo at 20 mg/kg: Mus musculus, iv; for % increase of the latency time to onset of initial cardiac arrythmia / % increase of the latency time to onset of tachycardia: with respect to the control group
Method: The antiarrhythmic effect of the compounds was also investigated in mice according to the P. W. Nwangwu, T. Holcslow procedure (P. W. Nwangwu, T. L. Holcslow; Arch. Int. Pharmacodyn. 229, 219 (1977)). Using aconitine (5γ/ml) as arrhythmogenic agent, the changes in the cardiac rhythm of the animals were recorded and the onset time of initial arrhythmia and/or of ventricular tachycardia were used as end point.

[2] = test system: plasma cholesterol (Chol.) triglycerides (TG) and α-, β- and pre-β-lipoproteins; test: plasma cholesterol, triglycerides and lipoproteins in rats treated with olive oil; type: in vivo; conditions: olive oil 15 ml kg^-1, N = 6; for % Lipoproteins β: control 16.12 ± 1.48; for % Lipoproteins α: control 23.28 ± 2.19; for % Lipoproteins pre-β: control 56.45 ± 2.36; for Chol. (plasma cholesterol): control 96.18 ± 4.16; for TG (plasma triglycerides): control 215.36 ± 20.18
mice = test: in vivo; type: in vivo; conditions: i.p. in mice; N = 5, K = 4
Text: as §1

[3] = test system: rabbit's heart "in vitro"; test: cardiokinetic effect: contractile force of isolated rabbit heart (Langendorff) after anoxia; conditions: 10^-6 M; 10 minutes from the interruption of the anoxic period; control 26.93 ± 5.31
Method: The cardiokinetic effect was investigated on rabbit hearts isolated by the Langendorff method. […] The isometric contractions, electro-cardiogram and coronary flow were recorded using a "Battaglia-Rangoni" polygraph. By removing the oxygen from the perfusion fluid, metabolic damage was induced in the cardiac muscle, up to an 80% reduction in the cardiac contractile force. Under these conditions of prolonged anoxia the aerobic glycolysis of the myocardium is slowed down with attendant formation of acid catabolites due to both the accumulation of pyruvic acid and its conversion to lactic acid which cannot be utilized because of the depression of pyridine enzymes, such as LDH (lactodehydrogenase). This has repercussions on the anaerobic glycolysis affecting an ever increasing number of enzymes, accompanied by a progressive and increasingly critical exhaustion of the myocardium. Thus a whole series of cardiac muscle fatigue levels occurs which can be observed by the behaviour of the examined parameters, namely the contractile force, coronary flow, heart rate and cardiac rhythm. As soon as the contractile force was reduced by 80%, the perfusion fluid was once again oxygenated either without adding other compounds (controls) or with the addition of the compounds under examination.

[4] = read-out: % increase of the latency time to onset of initial cardiac arrythmia
[5] = read-out: % increase of the latency time to onset of tachycardia

C[N+](C)(C)CC(CC(=O)O)OC(=O)CC1C=CCC1 (centres unmarked) [2-cyclopenten ACAR]
LD50 (in vivo): 1200 mg/kg | change in vivo at 100 mg/kg [1, 4]: 40% | change in vivo at 100 mg/kg [1, 5]: 20%

CC(C)(O)C(=O)OC(CC(=O)O)C[N+](C)(C)C (centres unmarked) [2-hydroxy isobutyryl CAR]
% Lipoproteins β ([2]; 450 mg kg^-1 oral): 10.36 ± 1.12% | % Lipoproteins α ([2]; 450 mg kg^-1 oral): 27.19 ± 3.48% | % Lipoproteins pre-β ([2]; 450 mg kg^-1 oral): 48.36 ± 1.15% | Chol. (plasma cholesterol) ([2]; 450 mg kg^-1 oral): 75.03 ± 4.12 mg/100 ml | TG (plasma triglycerides) ([2]; 450 mg kg^-1 oral): 100.29 ± 12.48 mg/100 ml | LD50 (in vivo): 1470 mg/kg | change in vivo at 25 mg/kg [1, 4]: 55% | change in vivo at 25 mg/kg [1, 5]: 48%

CC(C)C(O)C(=O)OC(CC(=O)O)C[N+](C)(C)C (centres unmarked) [2-hydroxy isovaleryl CAR]
LD50 (in vivo): 1580 mg/kg | change in vivo at 40 mg/kg [1, 4]: 60% | change in vivo at 40 mg/kg [1, 5]: 30%

COC(=O)CCC(=O)OC(CC(=O)O)C[N+](C)(C)C (centres unmarked) [3-carbomethoxypropionyl CAR, 3-carbomethoxypropionyl carnitine chloride]
% Lipoproteins β ([2]; 350 mg kg^-1 oral): 11.18 ± 1.15% | % Lipoproteins α ([2]; 350 mg kg^-1 oral): 34.17 ± 3.23% | % Lipoproteins pre-β ([2]; 350 mg kg^-1 oral): 50.03% | Chol. (plasma cholesterol) ([2]; 350 mg kg^-1 oral): 69.25 ± 3.26 mg/100 ml | TG (plasma triglycerides) ([2]; 350 mg kg^-1 oral): 88.15 ± 15.36 mg/100 ml | LD50 (in vivo): 985 mg/kg | change in vivo at 25 mg/kg [1, 4]: 65% | change in vivo at 25 mg/kg [1, 5]: 39%

C=C[C@H]1C[N@@]2CC[C@H]1C[C@@H]2[C@@H](O)c1ccnc2ccc(OC)cc12 [Quinidine, reference compound]
change in vivo at 8.9 mg/kg [1, 4]: 50% | change in vivo at 8.9 mg/kg [1, 5]: 41.7%

C=CC(=O)OC(CC(=O)O)C[N+](C)(C)C (centres unmarked) [acrilyl-CAR]
LD50 (in vivo): 1380 mg/kg | change in vivo at 50 mg/kg [1, 4]: 45% | change in vivo at 50 mg/kg [1, 5]: 39%

C[N+](C)(C)CC(CC(=O)O)OC(=O)CC1CCCCC1 (centres unmarked) [cyclohexyl ACAR, cyclohexyl acetyl carnitine chloride]
% Lipoproteins β ([2]; 400 mg kg^-1 oral): 12.15 ± 1.09% | % Lipoproteins α ([2]; 400 mg kg^-1 oral): 36.48 ± 2.36% | % Lipoproteins pre-β ([2]; 400 mg kg^-1 oral): 49.12% | Chol. (plasma cholesterol) ([2]; 400 mg kg^-1 oral): 85.15 ± 4.26 mg/100 ml | TG (plasma triglycerides) ([2]; 400 mg kg^-1 oral): 100.12 ± 15.16 mg/100 ml | LD50 (in vivo): 850 mg/kg | change in vivo at 35 mg/kg [1, 4]: 63% | change in vivo at 35 mg/kg [1, 5]: 44%

CCOCC(=O)OC(CC(=O)O)C[N+](C)(C)C (centres unmarked) [ethoxy ACAR, ethoxy acetyl carnitine chloride]
% Lipoproteins β ([2]; 250 mg kg^-1 oral): 10.28 ± 1.52% | % Lipoproteins α ([2]; 250 mg kg^-1 oral): 37.15 ± 2.17% | % Lipoproteins pre-β ([2]; 250 mg kg^-1 oral): 42.15 ± 2.27% | Chol. (plasma cholesterol) ([2]; 250 mg kg^-1 oral): 70.26 ± 6.48 mg/100 ml | TG (plasma triglycerides) ([2]; 250 mg kg^-1 oral): 78.25 ± 10.12 mg/100 ml | LD50 (in vivo): 2120 mg/kg | change in vivo at 20 mg/kg [1, 4]: 60% | change in vivo at 20 mg/kg [1, 5]: 55%

CCOCC(=O)O[C@H](CC(=O)O)C[N+](C)(C)C.[Cl-] [ethoxyacetyl CAR]
LD50 and fiducial limits (mice): 760 (545-975) mg kg^-1 | % increase of the latency time to onset of initial cardiac arrythmia ([1]; 100 mg kg^-1 i.v.): 40% | % increase of the latency time to onset of tachycardia ([1]; 100 mg kg^-1 i.v.): 20% | contractile force, mean ± ESM [3]: 62.25 ± 3.24%

CC(C=O)C(=O)OC(CC(=O)[O-])C[N+](C)(C)C (centres unmarked) [formyl propionyl CAR]
LD50 and fiducial limits (mice): 1010 (850-1170) mg kg^-1 | % increase of the latency time to onset of initial cardiac arrythmia ([1]; 60 mg kg^-1 i.v.): 55% | % increase of the latency time to onset of tachycardia ([1]; 60 mg kg^-1 i.v.): 34% | contractile force, mean ± ESM [3]: 74.26 ± 4.15%

COCC(=O)OC(CC(=O)O)C[N+](C)(C)C (centres unmarked) [methoxy ACAR, methoxy acetyl carnitine chloride]
LD50 (in vivo): 1980 mg/kg | change in vivo at 25 mg/kg [1, 4]: 65% | change in vivo at 25 mg/kg [1, 5]: 50%

CC(C)(C)CC(=O)OC(CC(=O)O)C[N+](C)(C)C (centres unmarked) [tert-butyl ACAR]
% Lipoproteins β ([2]; 350 mg kg^-1 oral): 13.27 ± 1.12% | % Lipoproteins α ([2]; 350 mg kg^-1 oral): 31.12 ± 2.17% | % Lipoproteins pre-β ([2]; 350 mg kg^-1 oral): 51.36% | Chol. (plasma cholesterol) ([2]; 350 mg kg^-1 oral): 70.12 ± 3.24 mg/100 ml | TG (plasma triglycerides) ([2]; 350 mg kg^-1 oral): 99.36 ± 10.12 mg/100 ml | LD50 (in vivo): 1120 mg/kg | change in vivo at 25 mg/kg [1, 4]: 59% | change in vivo at 25 mg/kg [1, 5]: 36%

vinyl acetyl carnitine chloride [vinyl CAR]
% Lipoproteins β ([2]; 300 mg kg^-1 oral): 14.13 ± 1.63% | % Lipoproteins α ([2]; 300 mg kg^-1 oral): 29.46 ± 3.15% | % Lipoproteins pre-β ([2]; 300 mg kg^-1 oral): 48.89 ± 2.96% | Chol. (plasma cholesterol) ([2]; 300 mg kg^-1 oral): 78.15 ± 6.16 mg/100 ml | TG (plasma triglycerides) ([2]; 300 mg kg^-1 oral): 112.15 ± 15.16 mg/100 ml | LD50 and fiducial limits (mice): 1200 (800-1600) mg kg^-1 | % increase of the latency time to onset of initial cardiac arrythmia ([1]; 38 mg kg^-1 i.v.): 53% | % increase of the latency time to onset of tachycardia ([1]; 38 mg kg^-1 i.v.): 41% | contractile force, mean ± ESM [3]: 48.25 ± 5.12%
